Results published in article PMC11302589 (Organic & biomolecular chemistry, 2012).

Columns and labels:
[1] = molecular target: Vibrio cholerae sialidase (type III) (Vibrio cholerae serotype O1, UniProt P0C6E9); assay: biochemical; type: biochemical; conditions: for IC50: V. cholerae
[2] = molecular target: Salmonella typhimurium sialidase (Salmonella typhimurium, UniProt P29768); assay: biochemical
[3] = molecular target: Streptococcus pneumoniae sialidase NanB (Streptococcus pneumoniae serotype 4, UniProt Q54727); assay: biochemical
[4] = molecular target: human cytosolic sialidase NEU2 (Homo sapiens, UniProt Q9Y3R4); assay: biochemical; type: biochemical; conditions: for IC50: IC50 with Neu5Acα2–3GalβpNP as sialidase substrate, NEU2
[5] = molecular target: T1, β-galactosidase (Aspergillus oryzae, UniProt Q2UCU3); type: biochemical
T1 sequence (Q2UCU3 19-1005): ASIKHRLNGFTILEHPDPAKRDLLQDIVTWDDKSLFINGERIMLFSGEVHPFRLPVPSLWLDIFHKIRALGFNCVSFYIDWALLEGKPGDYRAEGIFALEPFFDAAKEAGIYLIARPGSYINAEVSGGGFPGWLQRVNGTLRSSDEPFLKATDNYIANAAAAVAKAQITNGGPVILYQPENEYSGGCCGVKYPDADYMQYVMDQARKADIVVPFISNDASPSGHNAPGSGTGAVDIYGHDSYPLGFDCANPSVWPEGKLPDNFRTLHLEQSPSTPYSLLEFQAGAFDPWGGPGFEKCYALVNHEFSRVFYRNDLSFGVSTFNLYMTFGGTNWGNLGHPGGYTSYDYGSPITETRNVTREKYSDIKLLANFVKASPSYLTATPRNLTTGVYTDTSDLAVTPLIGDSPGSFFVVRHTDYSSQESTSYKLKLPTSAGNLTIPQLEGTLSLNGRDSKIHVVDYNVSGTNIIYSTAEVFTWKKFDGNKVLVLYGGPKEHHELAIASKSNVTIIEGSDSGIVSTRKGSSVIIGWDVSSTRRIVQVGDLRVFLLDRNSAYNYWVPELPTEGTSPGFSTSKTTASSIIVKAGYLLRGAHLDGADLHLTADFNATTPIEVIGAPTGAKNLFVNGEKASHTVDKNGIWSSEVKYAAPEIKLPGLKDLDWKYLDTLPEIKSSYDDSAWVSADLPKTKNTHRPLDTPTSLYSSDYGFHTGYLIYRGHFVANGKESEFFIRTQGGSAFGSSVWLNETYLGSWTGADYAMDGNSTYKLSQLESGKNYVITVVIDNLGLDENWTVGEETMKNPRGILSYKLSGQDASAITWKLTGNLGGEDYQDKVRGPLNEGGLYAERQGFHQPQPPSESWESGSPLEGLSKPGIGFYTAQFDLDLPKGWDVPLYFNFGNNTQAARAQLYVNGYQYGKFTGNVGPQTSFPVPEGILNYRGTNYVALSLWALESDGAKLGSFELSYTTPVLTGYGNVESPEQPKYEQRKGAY

[6] = IC50 with Neu5Acα2–6GalβpNP as sialidase substrate
[7] = IC50 with Neu5Acα2–3GalβpNP as sialidase substrate

Chain of Vibrio cholerae sialidase (type III) (P0C6E9 25-781 limits assumed): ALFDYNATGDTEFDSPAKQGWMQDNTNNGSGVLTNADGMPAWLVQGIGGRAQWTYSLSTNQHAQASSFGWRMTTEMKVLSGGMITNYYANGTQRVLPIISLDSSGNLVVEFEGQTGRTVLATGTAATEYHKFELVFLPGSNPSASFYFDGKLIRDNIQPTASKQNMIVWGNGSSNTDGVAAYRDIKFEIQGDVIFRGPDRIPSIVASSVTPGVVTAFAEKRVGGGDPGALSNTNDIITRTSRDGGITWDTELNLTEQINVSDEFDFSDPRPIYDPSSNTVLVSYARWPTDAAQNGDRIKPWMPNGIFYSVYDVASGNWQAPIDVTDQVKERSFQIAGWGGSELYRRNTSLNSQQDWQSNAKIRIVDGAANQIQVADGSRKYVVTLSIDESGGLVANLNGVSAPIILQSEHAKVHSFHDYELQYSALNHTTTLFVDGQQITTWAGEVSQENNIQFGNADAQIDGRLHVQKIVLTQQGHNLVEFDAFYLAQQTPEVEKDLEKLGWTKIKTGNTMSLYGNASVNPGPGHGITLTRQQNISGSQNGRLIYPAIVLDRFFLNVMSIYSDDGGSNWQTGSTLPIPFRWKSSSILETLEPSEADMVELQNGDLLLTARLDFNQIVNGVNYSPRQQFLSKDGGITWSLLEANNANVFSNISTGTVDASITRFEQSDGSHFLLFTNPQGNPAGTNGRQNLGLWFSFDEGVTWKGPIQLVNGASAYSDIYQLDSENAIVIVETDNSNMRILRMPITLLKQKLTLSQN
Chain of Streptococcus pneumoniae sialidase NanB (Q54727 30-697): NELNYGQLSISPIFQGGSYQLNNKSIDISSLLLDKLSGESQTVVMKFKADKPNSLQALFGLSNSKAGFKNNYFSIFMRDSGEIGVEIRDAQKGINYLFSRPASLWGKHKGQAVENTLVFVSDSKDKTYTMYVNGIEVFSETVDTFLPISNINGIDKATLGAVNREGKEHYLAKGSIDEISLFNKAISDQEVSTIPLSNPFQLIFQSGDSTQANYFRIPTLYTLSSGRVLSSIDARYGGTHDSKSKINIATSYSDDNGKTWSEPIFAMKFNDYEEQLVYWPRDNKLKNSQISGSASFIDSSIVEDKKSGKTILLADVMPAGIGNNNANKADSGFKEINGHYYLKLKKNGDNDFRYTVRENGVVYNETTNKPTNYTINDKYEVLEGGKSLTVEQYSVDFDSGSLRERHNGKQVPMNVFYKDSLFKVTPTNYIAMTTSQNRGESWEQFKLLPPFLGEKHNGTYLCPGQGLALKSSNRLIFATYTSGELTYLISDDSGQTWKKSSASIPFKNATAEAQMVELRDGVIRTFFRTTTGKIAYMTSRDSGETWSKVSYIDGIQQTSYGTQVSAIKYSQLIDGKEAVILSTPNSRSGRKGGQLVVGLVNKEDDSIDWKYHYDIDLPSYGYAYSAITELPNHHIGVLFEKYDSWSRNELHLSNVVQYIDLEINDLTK
Chain of human cytosolic sialidase NEU2 (Q9Y3R4 whole entry): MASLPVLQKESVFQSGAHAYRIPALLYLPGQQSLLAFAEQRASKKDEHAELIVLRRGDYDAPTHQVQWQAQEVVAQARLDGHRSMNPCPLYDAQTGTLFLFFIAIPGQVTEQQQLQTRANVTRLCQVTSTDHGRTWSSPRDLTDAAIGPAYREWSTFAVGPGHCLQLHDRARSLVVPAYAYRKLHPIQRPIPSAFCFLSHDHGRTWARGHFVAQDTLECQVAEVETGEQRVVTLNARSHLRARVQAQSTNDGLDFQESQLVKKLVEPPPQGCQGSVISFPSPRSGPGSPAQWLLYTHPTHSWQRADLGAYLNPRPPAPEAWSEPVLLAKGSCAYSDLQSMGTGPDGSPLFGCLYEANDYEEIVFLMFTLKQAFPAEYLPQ
Chain of Salmonella typhimurium sialidase (P29768 whole entry): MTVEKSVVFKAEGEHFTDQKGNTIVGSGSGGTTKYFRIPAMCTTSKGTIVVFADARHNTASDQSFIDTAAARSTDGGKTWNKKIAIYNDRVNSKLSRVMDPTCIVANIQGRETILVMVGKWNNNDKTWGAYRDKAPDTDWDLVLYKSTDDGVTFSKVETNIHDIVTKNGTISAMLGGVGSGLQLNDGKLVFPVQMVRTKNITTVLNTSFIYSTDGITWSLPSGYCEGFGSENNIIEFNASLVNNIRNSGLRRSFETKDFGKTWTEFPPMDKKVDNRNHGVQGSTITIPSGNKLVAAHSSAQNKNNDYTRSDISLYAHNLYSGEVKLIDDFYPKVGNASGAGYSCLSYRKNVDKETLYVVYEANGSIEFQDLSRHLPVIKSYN

Question: How did the “fold less efficient than Neu5Ac2en (1) against V. cholerae sialidase” value [1] turn out when CC(=O)N[C@H]1[C@H]([C@H](O)[C@H](O)CN=[N+]=[N-])OC(C(=O)O)=C[C@@H]1O [Neu5Ac9N32en (3), 5-Acetamido-2,6-anhydro-9-azido-3,5,9-trideoxy-D-glycero-D-galacto-non-2-enonic acid] was run?
Answer: Its value is 2.3 fold.

Question: And the IC50 [1, 6]?
Answer: The IC50 was 8.7 ± 1 µM.

Question: And the IC50 [2]?
Answer: Its IC50 is 210 µM.

Question: What about the IC50 [3] of the same compound?
Answer: The IC50 was 3300 µM.

Question: And the “fold less efficient than Neu5Ac2en (1) against human NEU2” value [4]?
Answer: Its value is 2.4 fold.

Question: And the IC50 [4]?
Answer: The IC50 was 43 ± 2 µM.

Question: What about the “inhibitory effect against β-galactosidase” value (from here on “inhibitory effect”) [5] of the same compound?
Answer: The value was “no inhibitory effect”.

Question: COC[C@@H](O)[C@@H](O)[C@@H]1OC(C(=O)O)=C[C@H](O)[C@H]1NC(C)=O [Neu5Ac9Me2en (6), 5-Acetamido-2,6-anhydro-3,5-dideoxy-9-O-methyl-D-glycero-D-galacto-non-2-enonic acid] was tested. Which IC50 [1, 7] did it give?
Answer: Its IC50 is 130 µM.

Question: What about the IC50 [1, 6] of the same compound?
Answer: Its IC50 is 120 µM.

Question: And the IC50 [2]?
Answer: Its IC50 is 130 µM.

Question: And the IC50 [3]?
Answer: The IC50 was 3000 µM.

Question: And the IC50 [4]?
Answer: Its IC50 is 1100 µM.

Question: What about the “inhibitory effect” value [5] of the same compound?
Answer: Its value is “no inhibitory effect”.

Question: For CCCNC[C@@H](O)[C@@H](O)[C@@H]1OC(C(=O)O)=C[C@H](O)[C@H]1NC(C)=O [Neu5Ac9NPro2en (7), 5-Acetamido-9-aminopropyl-2,6-anhydro-3,5,9-trideoxy-D-glycero-D-galacto-non-2-enonic acid], which IC50 [1, 7] is on record?
Answer: Its IC50 is over 1000 µM.

Question: What about the IC50 [1, 6] of the same compound?
Answer: The IC50 was over 1000 µM.

Question: And the IC50 [2]?
Answer: The IC50 was 2300 µM.

Question: And the IC50 [3]?
Answer: Its IC50 is 5400 µM.

Question: And the “inhibitory effect” value [5]?
Answer: The value was “no inhibitory effect”.

Question: For [N-]=[N+]=NC[C@@H](O)[C@@H](O)[C@@H]1OC(C(=O)O)=C[C@H](O)[C@H]1NC(=O)CO [Neu5Gc9N32en (4), 2,6-Anhydro-9-azido-3,5,9-trideoxy-5-(2-hydroxyacetamido)-D-glycero-D-galacto-non-2-enonic acid], which “selectivity for V. cholerae sialidase among the five sialidases tested” value [1] is on record?
Answer: The value was “selective inhibitor”.

Question: And the IC50 [1, 7]?
Answer: Its IC50 is 18 ± 3 µM.

Question: What about the IC50 [1, 6] of the same compound?
Answer: Its IC50 is 13 ± 2 µM.

Question: And the IC50 [2]?
Answer: The IC50 was over 10000 µM.

Question: And the IC50 [3]?
Answer: The IC50 was over 10000 µM.

Question: And the IC50 [4]?
Answer: The IC50 was 150 µM.

Question: And the “inhibitory effect” value [5]?
Answer: The value was “no inhibitory effect”.

Question: For CC(=O)N[C@H]1[C@H]([C@H](O)[C@H](O)CO)OC(C(=O)O)=C[C@@H]1O [Neu5Ac2en (1), 2-deoxy-2,3-dehydro-N-acetylneuraminic acid, reference compound], which “inhibitory effect” value [5] is on record?
Answer: Its value is “no inhibitory effect”.

Question: Which IC50 [1, 7] does the source give for [N-]=[N+]=NCC(=O)N[C@H]1[C@H]([C@H](O)[C@H](O)CN=[N+]=[N-])OC(C(=O)O)=C[C@@H]1O [Neu5AcN39N32en (5), 2,6-Anhydro-9-azido-5-(2-azidoacetamido)-3,5,9-trideoxy-D-glycero-D-galacto-non-2-enonic acid] here?
Answer: The IC50 was 140 µM.

Question: What about the IC50 [1, 6] of the same compound?
Answer: The IC50 was 110 µM.

Question: And the IC50 [2]?
Answer: Its IC50 is 16000 µM.

Question: What about the IC50 [3] of the same compound?
Answer: The IC50 was over 1000 µM.

Question: What about the “inhibitory effect” value [5] of the same compound?
Answer: The value was “no inhibitory effect”.
